Several values for one entry are separate records, joined by “and”; a condition that tells them apart may be missing. Equal values may be shown once. Inconclusive results are not listed.
Test system: BDF1 mice, s.c. Lewis lung carcinoma, T/C %
Assay: NCI In Vivo Anticancer Drug Screen. Data for tumor model Lewis Lung Carcinoma (subcutaneous) in B6D2F1 (BDF1) mice
Procedure: The antitumor activity of compounds was measured in mice bearing transplantable tumors. Survival or tumor size were measured and the results are expressed as the measurement made in the treated group (T) divided by the measurement made in the vehicle treated control group (C). The tumor model used in this assay is Lewis Lung Carcinoma (subcutaneous) in B6D2F1 (BDF1) mice

O=NN(CCCl)C(=O)NC1CCCCC1
T/C (endpoint: median survival time, dose: 0.12 mg/kg/injection, schedule: Q08HX024 (ip), vehicle: Klucel (hydroxypropylcellulose) (HPC), higher = longer survival): 91 % of control | T/C (endpoint: median survival time, dose: 0.12 mg/kg/injection, schedule: Q08HX024 (ip), vehicle: saline, higher = longer survival): 181 % of control | T/C (endpoint: median survival time, dose: 0.25 mg/kg/injection, schedule: Q08HX024 (ip), vehicle: Klucel (hydroxypropylcellulose) (HPC), higher = longer survival): 106 % of control and 111 % of control | T/C (endpoint: median survival time, dose: 0.25 mg/kg/injection, schedule: Q08HX024 (ip), vehicle: saline, higher = longer survival): 182 % of control | T/C (endpoint: median survival time, dose: 0.5 mg/kg/injection, schedule: Q08HX024 (ip), vehicle: Klucel (hydroxypropylcellulose) (HPC), higher = longer survival): 103 % of control and 115 % of control | T/C (endpoint: median survival time, dose: 0.5 mg/kg/injection, schedule: Q08HX024 (ip), vehicle: saline, higher = longer survival): 103 % of control | T/C (endpoint: median survival time, dose: 1.0 mg/kg/injection, schedule: Q08HX024 (ip), vehicle: Klucel (hydroxypropylcellulose) (HPC), higher = longer survival): 119 % of control | T/C (endpoint: median survival time, dose: 1.0 mg/kg/injection, schedule: Q08HX024 (ip), vehicle: saline, higher = longer survival): 91 % of control | T/C (endpoint: median survival time, dose: 2.4 mg/kg/injection, schedule: Q01DX001 (ip), vehicle: other, higher = longer survival): 120 % of control | T/C (endpoint: median survival time, dose: 4.0 mg/kg/injection, schedule: Q01DX009 (ip), vehicle: saline with Tween-80, higher = longer survival): 112 % of control | T/C (endpoint: median survival time, dose: 4.7 mg/kg/injection, schedule: Q01DX001 (ip), vehicle: other, higher = longer survival): 109 % of control | T/C (endpoint: median survival time, dose: 5.0 mg/kg/injection, schedule: Q01DX001 (ip), vehicle: Klucel (hydroxypropylcellulose) (HPC), higher = longer survival): 95 % of control and 106 % of control and 123 % of control | T/C (endpoint: median survival time, dose: 8.0 mg/kg/injection, schedule: Q01DX009 (ip), vehicle: saline with Tween-80, higher = longer survival): 120 % of control | T/C (endpoint: median survival time, dose: 9.5 mg/kg/injection, schedule: Q01DX001 (ip), vehicle: other, higher = longer survival): 105 % of control | T/C (endpoint: median survival time, dose: 10.0 mg/kg/injection, schedule: Q01DX001 (ip), vehicle: Klucel (hydroxypropylcellulose) (HPC), higher = longer survival): 86 % of control and 91 % of control and 111 % of control | T/C (endpoint: median survival time, dose: 12.5 mg/kg/injection, schedule: Q01DX001 (ip), vehicle: Klucel (hydroxypropylcellulose) (HPC), higher = longer survival): 93 % of control and 113 % of control | T/C (endpoint: median survival time, dose: 12.5 mg/kg/injection, schedule: Q01DX001 (ip), vehicle: saline with Tween-80, higher = longer survival): 158 % of control | T/C (endpoint: median survival time, dose: 18.9 mg/kg/injection, schedule: Q01DX001 (ip), vehicle: other, higher = longer survival): 150 % of control | T/C (endpoint: median survival time, dose: 20.0 mg/kg/injection, schedule: Q01DX001 (ip), vehicle: Klucel (hydroxypropylcellulose) (HPC), higher = longer survival): 97 % of control and 115 % of control | T/C (endpoint: median survival time, dose: 25.0 mg/kg/injection, schedule: Q01DX001 (ip), vehicle: Klucel (hydroxypropylcellulose) (HPC), higher = longer survival): 108 % of control | T/C (endpoint: median survival time, dose: 27.0 mg/kg/injection, schedule: Q11DX002 (ip), vehicle: Klucel (hydroxypropylcellulose) (HPC), higher = longer survival): 111 % of control | T/C (endpoint: median survival time, dose: 32.0 mg/kg/injection, schedule: Q01DX009 (ip), vehicle: Klucel (hydroxypropylcellulose) (HPC), higher = longer survival): 94 % of control | T/C (endpoint: median survival time, dose: 33.0 mg/kg/injection, schedule: Q01DX001 (ip), vehicle: carboxymethylcellulose (CMC), higher = longer survival): 102 % of control | T/C (endpoint: median survival time, dose: 33.0 mg/kg/injection, schedule: Q06DX002 (ip), vehicle: carboxymethylcellulose (CMC), higher = longer survival): 180 % of control | T/C (endpoint: median survival time, dose: 33.0 mg/kg/injection, schedule: Q08DX002 (ip), vehicle: carboxymethylcellulose (CMC), higher = longer survival): 100 % of control | T/C (endpoint: median survival time, dose: 33.0 mg/kg/injection, schedule: Q12DX002 (ip), vehicle: carboxymethylcellulose (CMC), higher = longer survival): 102 % of control | T/C (endpoint: median survival time, dose: 37.8 mg/kg/injection, schedule: Q01DX001 (ip), vehicle: other, higher = longer survival): 160 % of control | T/C (endpoint: median survival time, dose: 40.0 mg/kg/injection, schedule: Q11DX002 (ip), vehicle: Klucel (hydroxypropylcellulose) (HPC), higher = longer survival): 79 % of control and 97 % of control | T/C (endpoint: median survival time, dose: 40.0 mg/kg/injection, schedule: Q11DX002 (oral), vehicle: Klucel (hydroxypropylcellulose) (HPC), higher = longer survival): 86 % of control | T/C (endpoint: median survival time, dose: 50.0 mg/kg/injection, schedule: Q01DX001 (ip), vehicle: Klucel (hydroxypropylcellulose) (HPC), higher = longer survival): 67 % of control | T/C (endpoint: median survival time, dose: 50.0 mg/kg/injection, schedule: Q01DX001 (ip), vehicle: carboxymethylcellulose (CMC), higher = longer survival): 100 % of control | T/C (endpoint: median survival time, dose: 50.0 mg/kg/injection, schedule: Q06DX002 (ip), vehicle: carboxymethylcellulose (CMC), higher = longer survival): 151 % of control | T/C (endpoint: median survival time, dose: 50.0 mg/kg/injection, schedule: Q08DX002 (ip), vehicle: carboxymethylcellulose (CMC), higher = longer survival): 92 % of control | T/C (endpoint: median survival time, dose: 50.0 mg/kg/injection, schedule: Q10DX002 (ip), vehicle: carboxymethylcellulose (CMC), higher = longer survival): 103 % of control | T/C (endpoint: median survival time, dose: 50.0 mg/kg/injection, schedule: Q12DX002 (ip), vehicle: carboxymethylcellulose (CMC), higher = longer survival): 115 % of control | T/C (endpoint: median survival time, dose: 60.0 mg/kg/injection, schedule: Q11DX002 (ip), vehicle: Klucel (hydroxypropylcellulose) (HPC), higher = longer survival): 53 % of control and 113 % of control | T/C (endpoint: median survival time, dose: 60.0 mg/kg/injection, schedule: Q11DX002 (oral), vehicle: Klucel (hydroxypropylcellulose) (HPC), higher = longer survival): 90 % of control | T/C (endpoint: median survival time, dose: 75.7 mg/kg/injection, schedule: Q01DX001 (ip), vehicle: other, higher = longer survival): 124 % of control | T/C (endpoint: median survival time, dose: 80.0 mg/kg/injection, schedule: Q01DX001 (ip), vehicle: Klucel (hydroxypropylcellulose) (HPC), higher = longer survival): 112 % of control | T/C (endpoint: median survival time, dose: 90.0 mg/kg/injection, schedule: Q11DX002 (oral), vehicle: Klucel (hydroxypropylcellulose) (HPC), higher = longer survival): 75 % of control | T/C (endpoint: median survival time, dose: 100.0 mg/kg/injection, schedule: Q01DX001 (ip), vehicle: saline with Tween-80, higher = longer survival): 154 % of control | T/C (endpoint: median survival time, dose: 160.0 mg/kg/injection, schedule: Q01DX001 (ip), vehicle: Klucel (hydroxypropylcellulose) (HPC), higher = longer survival): 110 % of control | T/C (endpoint: median tumor weight (est.), dose: 4.0 mg/kg/injection, schedule: Q01DX009 (ip), vehicle: Klucel (hydroxypropylcellulose) (HPC), higher = larger tumour): 66 % of control | T/C (endpoint: median tumor weight (est.), dose: 8.0 mg/kg/injection, schedule: Q01DX009 (ip), vehicle: Klucel (hydroxypropylcellulose) (HPC), higher = larger tumour): 46 % of control | T/C (endpoint: median tumor weight (est.), dose: 12.5 mg/kg/injection, schedule: Q01DX001 (ip), vehicle: Klucel (hydroxypropylcellulose) (HPC), higher = larger tumour): 88 % of control | T/C (endpoint: median tumor weight (est.), dose: 16.0 mg/kg/injection, schedule: Q01DX009 (ip), vehicle: Klucel (hydroxypropylcellulose) (HPC), higher = larger tumour): 3 % of control | T/C (endpoint: median tumor weight (est.), dose: 19.0 mg/kg/injection, schedule: Q01DX001 (ip), vehicle: carboxymethylcellulose (CMC), higher = larger tumour): 72 % of control | T/C (endpoint: median tumor weight (est.), dose: 25.0 mg/kg/injection, schedule: Q01DX001 (ip), vehicle: Klucel (hydroxypropylcellulose) (HPC), higher = larger tumour): 48 % of control | T/C (endpoint: median tumor weight (est.), dose: 38.0 mg/kg/injection, schedule: Q01DX001 (ip), vehicle: carboxymethylcellulose (CMC), higher = larger tumour): 46 % of control | T/C (endpoint: median tumor weight (est.), dose: 57.0 mg/kg/injection, schedule: Q01DX001 (ip), vehicle: carboxymethylcellulose (CMC), higher = larger tumour): 34 % of control

— PubChem BioAssay AID270 (DTP/NCI, 2004)
